# ChEMBL document CHEMBL1201862, “PubChem BioAssay data set” (2004)
#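 Five concentrations, 48 hours, 96-well plates. Abbreviation: GI50, concentration required for 50% inhibition of growth.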 Active and inactive are the calls of the source. Cut-off read from the data, not from the text of the source: active = GI50 up to about 1.1 µM and inactive = higher.
# Key:
# Experiment in all cases: NCI tumour cell line growth inhibition, 48 h
# CCRF-CEM = test system: CCRF-CEM
# NCI-H226 = test system: NCI-H226
# SNB-19 = test system: SNB-19
# HOP-92 = test system: HOP-92
# EKVX = test system: EKVX
# SF-268 = test system: SF-268
# SK-MEL-2 = test system: SK-MEL-2
# PC-3 = test system: PC-3
# SK-OV-3 = test system: SK-OV-3
# 786-0 = test system: 786-0
# MCF7 = test system: MCF7
# NCI/ADR-RES = test system: NCI/ADR-RES
# OVCAR-5 = test system: OVCAR-5
# HOP-62 = test system: HOP-62
# Hs-578T = test system: Hs-578T
# NCI-H522 = test system: NCI-H522
# CAKI-1 = test system: CAKI-1
# OVCAR-3 = test system: OVCAR-3
# MDA-N = test system: MDA-N
# BT-549 = test system: BT-549
# ACHN = test system: ACHN
# RPMI-8226 = test system: RPMI-8226
# SN12C = test system: SN12C
# SF-539 = test system: SF-539
# SF-295 = test system: SF-295
# DU-145 = test system: DU-145
# MDA-MB-231 = test system: MDA-MB-231
# UACC-62 = test system: UACC-62
# MOLT-4 = test system: MOLT-4
# IGROV-1 = test system: IGROV-1
# HCC 2998 = test system: HCC 2998
# HCT-15 = test system: HCT-15
# T47D = test system: T47D
# M14 = test system: M14
# SK-MEL-28 = test system: SK-MEL-28
# U-251 = test system: U-251
# HCT-116 = test system: HCT-116
# NCI-H23 = test system: NCI-H23
# SW-620 = test system: SW-620
# TK-10 = test system: TK-10
# COLO 205 = test system: COLO 205
# UACC-257 = test system: UACC-257
# SK-MEL-5 = test system: SK-MEL-5
# A549 = test system: A549
# UO-31 = test system: UO-31
# OVCAR-8 = test system: OVCAR-8
# MDA-MB-435 = test system: MDA-MB-435
# K562 = test system: K562
# NCI-H460 = test system: NCI-H460
# RXF 393 = test system: RXF 393
# LOX IMVI = test system: LOX IMVI
# SR = test system: SR
# A498 = test system: A498
# HL-60 = test system: HL-60
# OVCAR-4 = test system: OVCAR-4
# SNB-75 = test system: SNB-75
# Malme-3M = test system: Malme-3M
# HT-29 = test system: HT-29
# KM12 = test system: KM12
smiles,measurement,setting,value
CC1(C)OC2C(CO)OC(n3ccc(=O)[nH]c3=O)C2O1 (stereo not given),GI50,CCRF-CEM,> 100 µM (inactive)
same,GI50,NCI-H226,> 100 µM (inactive)
same,GI50,SNB-19,> 100 µM (inactive)
same,GI50,HOP-92,83.2 µM (inactive)
same,GI50,EKVX,> 100 µM (inactive)
same,GI50,SF-268,> 100 µM (inactive)
same,GI50,SK-MEL-2,> 100 µM (inactive)
same,GI50,PC-3,> 100 µM (inactive)
same,GI50,SK-OV-3,> 100 µM (inactive)
same,GI50,786-0,> 100 µM (inactive)
same,GI50,MCF7,> 100 µM (inactive)
same,GI50,NCI/ADR-RES,> 100 µM (inactive)
same,GI50,OVCAR-5,> 100 µM (inactive)
same,GI50,HOP-62,> 100 µM (inactive)
same,GI50,Hs-578T,> 100 µM (inactive)
same,GI50,NCI-H522,> 100 µM (inactive)
same,GI50,CAKI-1,> 100 µM (inactive)
same,GI50,OVCAR-3,> 100 µM (inactive)
same,GI50,MDA-N,> 100 µM (inactive)
same,GI50,BT-549,> 100 µM (inactive)
same,GI50,ACHN,> 100 µM (inactive)
same,GI50,RPMI-8226,> 100 µM (inactive)
same,GI50,SN12C,> 100 µM (inactive)
same,GI50,SF-539,> 100 µM (inactive)
same,GI50,SF-295,> 100 µM (inactive)
same,GI50,DU-145,> 100 µM (inactive)
same,GI50,MDA-MB-231,> 100 µM (inactive)
same,GI50,UACC-62,> 100 µM (inactive)
same,GI50,MOLT-4,> 100 µM (inactive)
same,GI50,IGROV-1,> 100 µM (inactive)
same,GI50,HCC 2998,> 100 µM (inactive)
same,GI50,HCT-15,> 100 µM
same,GI50,T47D,> 100 µM (inactive)
same,GI50,M14,> 100 µM (inactive)
same,GI50,SK-MEL-28,> 100 µM (inactive)
same,GI50,U-251,> 100 µM (inactive)
same,GI50,HCT-116,> 100 µM (inactive)
same,GI50,NCI-H23,> 100 µM (inactive)
same,GI50,SW-620,> 100 µM (inactive)
same,GI50,TK-10,> 100 µM (inactive)
same,GI50,COLO 205,> 100 µM (inactive)
same,GI50,UACC-257,> 100 µM (inactive)
same,GI50,SK-MEL-5,> 100 µM (inactive)
same,GI50,A549,> 100 µM (inactive)
same,GI50,UO-31,> 100 µM (inactive)
same,GI50,OVCAR-8,> 100 µM (inactive)
same,GI50,MDA-MB-435,> 100 µM (inactive)
same,GI50,K562,> 100 µM (inactive)
same,GI50,NCI-H460,> 100 µM (inactive)
same,GI50,RXF 393,> 100 µM (inactive)
same,GI50,LOX IMVI,> 100 µM (inactive)
same,GI50,SR,> 100 µM (inactive)
same,GI50,A498,> 100 µM (inactive)
same,GI50,HL-60,> 100 µM (inactive)
C(=N\c1nc2cc3sc(/N=C/c4cccs4)nc3cc2s1)/c1cccs1,GI50,CCRF-CEM,11.5 µM (inactive)
same,GI50,NCI-H226,28.4 µM (inactive)
same,GI50,SNB-19,> 100 µM (inactive)
same,GI50,HOP-92,> 100 µM (inactive)
same,GI50,EKVX,34.4 µM (inactive)
same,GI50,SF-268,> 100 µM (inactive)
same,GI50,SK-MEL-2,> 100 µM (inactive)
same,GI50,PC-3,> 100 µM (inactive)
same,GI50,SK-OV-3,> 100 µM (inactive)
same,GI50,OVCAR-4,> 100 µM (inactive)
same,GI50,786-0,> 100 µM (inactive)
same,GI50,SNB-75,> 100 µM (inactive)
same,GI50,MCF7,33.4 µM (inactive)
same,GI50,NCI/ADR-RES,> 100 µM (inactive)
same,GI50,OVCAR-5,> 100 µM (inactive)
same,GI50,HOP-62,> 100 µM (inactive)
same,GI50,Hs-578T,> 100 µM (inactive)
same,GI50,NCI-H522,45.2 µM (inactive)
same,GI50,CAKI-1,> 100 µM (inactive)
same,GI50,OVCAR-3,> 100 µM (inactive)
same,GI50,Malme-3M,> 100 µM (inactive)
same,GI50,MDA-N,> 100 µM (inactive)
same,GI50,BT-549,> 100 µM (inactive)
same,GI50,ACHN,> 100 µM (inactive)
same,GI50,HT-29,44.8 µM (inactive)
same,GI50,RPMI-8226,> 100 µM (inactive)
same,GI50,SN12C,72.9 µM (inactive)
same,GI50,SF-539,> 100 µM (inactive)
same,GI50,SF-295,> 100 µM (inactive)
same,GI50,DU-145,> 100 µM (inactive)
same,GI50,MDA-MB-231,> 100 µM (inactive)
same,GI50,MOLT-4,28.3 µM (inactive)
same,GI50,IGROV-1,> 100 µM (inactive)
same,GI50,HCT-15,73.5 µM
same,GI50,T47D,> 100 µM (inactive)
same,GI50,KM12,> 100 µM (inactive)
same,GI50,M14,> 100 µM (inactive)
same,GI50,SK-MEL-28,> 100 µM (inactive)
same,GI50,U-251,> 100 µM (inactive)
same,GI50,HCT-116,> 100 µM (inactive)
same,GI50,NCI-H23,69.2 µM (inactive)
same,GI50,TK-10,26.2 µM (inactive)
same,GI50,COLO 205,3.4 µM (inactive)
same,GI50,UACC-257,70.1 µM (inactive)
same,GI50,SK-MEL-5,33 µM (inactive)
same,GI50,A549,11.5 µM (inactive)
same,GI50,UO-31,> 100 µM (inactive)
same,GI50,OVCAR-8,> 100 µM (inactive)
same,GI50,MDA-MB-435,> 100 µM (inactive)
same,GI50,K562,> 100 µM (inactive)
same,GI50,NCI-H460,5.36 µM (inactive)
same,GI50,RXF 393,> 100 µM (inactive)
same,GI50,LOX IMVI,66.5 µM (inactive)
same,GI50,SR,26.1 µM (inactive)
same,GI50,A498,> 100 µM (inactive)
same,GI50,HL-60,79.6 µM (inactive)
